Results taken from patent US6756037B2, “Polymer conjugates of biologically active agents and extension moieties for facilitating conjugation of biologically active agents to polymeric terminal groups” (Enzon, Inc., priority 2000, dated 2004).

Test system: P388/0 cell lines
Test: Cytotoxicity assay, growth inhibition of P388/0 cells (Alamar Blue)
Type: cell-based
Conditions: 3 days incubation at 37° C., drug concentration inhibiting growth of cells by 50%
Protocol: Cell Lines and Cytotoxicity Assays. Studies using P388/0 cell lines for IC50 (drug concentration inhibiting growth of cells by 50%) were maintained and conducted using standard procedures. Briefly, for IC50 determination, cells were seeded into the microwell plates at a density of 2×10^3 cells per 50 μL per well. Plates were incubated at 37° C. in a humidified incubator with 5% CO2 for 3 days. Cell growth was measured by the addition of 10 μL/well of Alamar Blue (Alamar Biosciences, Inc., Sacramento, Calif.) and the plates were incubated a further 4 hours at 37° C. The IC50 values for each compound were determined from absorbance versus dilution factor plots. All cell cultures for animal implantation were maintained at 37° C. in a humidified atmosphere of 5% CO2/[…] and subcultured once a week. All cell lines were periodically tested for Mycoplasma and were Mycoplasma free.

SMILES: Nc1ccn([C@@H]2O[C@H](CO)[C@@H](O)[C@@H]2O)c(=O)n1 [Ara-C, ara-C]
- IC50: 10 nM
